Measurements reported in US20110269790A1, “NOVEL THIENOPYRIDINES AS PHARMACOLOGICALLY ACTIVE AGENTS” (priority 2009, published 2011).

Columns and labels:
[1] = target: T1, yeast α-glucosidase (Saccharomyces cerevisiae, UniProt P53341); assay: In-vitro yeast α-glucosidase inhibition assay; format: biochemical, bakers yeast
T1 construct: α-Glucosidase [(EC 3.2.1.20) Type I: from bakers yeast]
Excerpt: Chemicals: α-Glucosidase [(EC 3.2.1.20) Type I: from bakers yeast], rat intestinal acetone powder (as a source of crude intestinal α-glucosidase), α-amylase [EC 3.2.1.1) Type VI B: from porcine pancreas], p-nitrophenyl α-D-glucopyranoside, 3,5-dinitro salicylic acid, soluble potato starch and 1-deoxyrojirimycine, were purchased from Sigma Chemical Co., St Louis, Mo., USA. Other chemicals of analytical grade were procured from indigenous manufacturers.
In-vitro a-Glucosidase Inhibition Assay: Yeast and intestinal a-glucosidase inhibitory activities were determined as per reported methods (Babu et al., 2004; Mc Dougall et al., 2005). Rat intestinal acetone powder in normal saline (100% w/v) was sonicated properly and the supernatant was used as a source of crude intestinal a-glucosidase after centrifugation. In brief, 20 μl, of test samples (100 mg/ml DMSO solution) were reconstituted in 100 μl of 100 mM-Phosphate buffer (pH 6.8) in a 96-well microplate and incubated with 50 μl yeast a-glucosidase (0.76 μ/ml in same buffer) or crude intestinal a-glucosidase for 5 min before 50-μl substrate (5 mM, […] prepared in same buffer) was added. Release of p-nitrophenyol was measured at 405 nm spectrophotometrically (Spectra Mas Plus 384, Molecular Device corporation, Sunnyvale, Calif., USA) 5 min after incubation with substrate, individual blank for test samples were prepared to correct background absorbance where the substrate was replaced with 50 μl of buffer. The control sample contained 20 μl DMSO in place of test samples. The percentage of enzyme inhibition was calculated as (A−B/A)×100 where A is represents the absorbance of the control without test samples, and B represents the absorbance in the presence of test samples. […] The IC50 values were calculated by applying logarithmic regression analysis from the mean inhibitory values.

[2] = test system: IL-1β; assay: IL-1β in rat paw tissue and serum, FCA model (ELISA); format: in vivo; parameters: % Inhibition (IL-1 Beta) / Percentage of Inhibition (IL-1 Beta): concentration or dose not given beside the values; settings: for % Inhibition (IL-1 Beta): FCA model
Method: (§1) Group I—Normal Control; Group II—Arthritic control; Group III—Arthritic rats administered with Synthetic compound BN-4; Group IV—arthritic rats administered with compound BN-14; Group V—arthritic rats administered with BN-16; Group VI—arthritic rats administered with standard drug indomethacin. Administration of test compounds and indomethacin started on the same day of adjuvant injection at the dose of 100 and 2.5 mg/kg respectively. The test and indomethacin doses continued up to 21 days in FCA induced model and 24 days in collagen induced model. During the study period the paw volumes were measured on 5th, 12th, 18th and 21 st days and the weight of the animals was also recorded at different time intervals. At each time point the percentage of inhibition of paw volume was calculated with reference to mean paw volume of control group In FCA model, animals were sacrificed on 21st day by cervical dislocation. Before sacrificing the animals, blood was collected and used for estimation of total leukocyte count, TNF-α and IL-1β.
In FCA induced study paw tissues were collected on termination day and estimated TNF-α and IL-1β levels for all the groups by ELISA method.
On termination day blood samples were collected and serum was used for the estimation of Both TNF-α and IL-1β levels in FCA and Collagen induced studies. Both the parameters were determined using ELISA kits. TNF-α could not be determined as their expression is very less in serum samples of the rats in the two models studied, where as IL-1β expression in serum was good. Daily treatment of synthetic compounds by oral administration was effective in reducing the serum IL-1β levels (P<0.01) when compared with arthritic control group.

[3] = test system: Wistar rats; assay: Freund's complete adjuvant (FCA) induced arthritis; format: in vivo, rat; settings: BN compounds 100 mg/kg; for % Of inhibition, 5th Day / % Of inhibition, 12th Day / % Of inhibition, 18th Day / Body weight index, 21st DAY / Paw volume, 5th Day / Paw volume, 12th Day / Paw volume, 18th Day / Paw volume, 21st Day: indomethacin 2.5 mg/kg daily; for Body weight index, 21st DAY / Body weight index, 1st DAY: FCA study; for Paw volume, 5th Day / Paw volume, 12th Day / Paw volume, 18th Day / Paw volume, 21st Day: in mL (unit assumed); for Body weight index, 1st DAY: indomethacin 2.5 mg/kg; for Total WBC count: termination day, FCA model, Indomethacin 2.5 mg/kg
Method: Induction of Arthritis: Arthritis was induced by injecting Freund's complete adjuvant (FCA. Required quantity of FCA was weighed and suspension made with paraffin oil (DIFCO Laboratories) and administered at dose of 0.5 mg/rat in subplantar region of the right hind paw. After 7 days, a booster injection was given to all animals to hind paws.
Experimental Design Animals were divided into 6 groups of 6 rats each and were designated as:
as §1
Clinical Assessment of Adjuvant arthritis: Rats were examined for visual appearance of arthritis and the lesion of erythema and inflammation of periarticular tissues on 14th day, 18th day and on 21st day. Arthritis scoring scale as follows:
2=Mild swelling and erythema of the limb 3=Gross swelling and erythema of the limb 4=Gross deformity and inability to use the limb
The arthritis score of each rat was the sum of the scores of both hind limbs and maximum score was being 8 for each rat.

[4] = test system: nitric oxide; assay: Nitric oxide inhibition assay, sodium nitroprusside method; settings: Griess reagent, vs control
[5] = test system: Wistar rats; assay: Antidiabetic activity by starch loaded model; format: in vivo, rat; settings: for % Increase in glucose, 30 min / Blood glucose level, 30 min: 30 min after starch; for % Increase in glucose, 30 min / Blood glucose level, 30 min / % Increase in glucose, 60 min / Blood glucose level, 60 min / % Increase in glucose, 90 min / Blood glucose level, 90 min / % Increase in glucose, 120 min / Blood glucose level, 120 min / Blood glucose level, 0 min: test compounds 100 mg/kg, Acarbose 10 mg/kg oral; for Blood glucose level, 30 min / Blood glucose level, 60 min / Blood glucose level, 90 min / Blood glucose level, 120 min / Blood glucose level, 0 min: in mg/dL (unit assumed); for % Increase in glucose, 60 min / Blood glucose level, 60 min: 60 min after starch; for % Increase in glucose, 90 min / Blood glucose level, 90 min: 90 min after starch; for % Increase in glucose, 120 min / Blood glucose level, 120 min: 120 min after starch; for Blood glucose level, 0 min: basal, prior to dosing
Excerpt: Experimental Animals—Wistar rats of either sex were used for the present study. Animals selected for use in the study were of uniform age and body weight. A minimum of 40 rats, from which eventually 20 rats were selected. Their body weights were in the range of 150-180 gm. The health status of the animals was ascertained by a veterinary surgeon. […] Animals were acclimatized for at least two weeks prior to start of the study. The animals were provided with pellet diet manufactured by NIN, HYDERABAD, India and drinking water adlibitum.
Compound Preparation The required quantity of the synthetic compounds were weighed and made suspension with gum acacia (2%). The test compounds were administered to all rats by per oral route. Acarbose suspension was also prepared in gum acasia suspension and given by oral route.
Antidiabetic activity by Starch model: The method of Rao et al., 2009;Tiwari et al was employed. Animals were fasted over night (12 hrs). Basal blood glucose levels were estimated for all the animals prior to dosing in test and standard groups. This was designated as “0” min reading. […] After test compounds administration animals in all three groups received Starch aqueous solution (2 gm/kg body weight). Blood glucose levels were monitored at 30, 60, 90 and 120 min after the administration of Starch in all the three groups. The percentage of increase in, blood glucose levels was calculated with respect to the control group at each time point.

[6] = paw tissue, termination day (21st day), BN compounds 100 mg/kg, indomethacin 2.5 mg/kg
[7] = rat serum, termination day, FCA induced arthritis

T1 sequence (P53341 whole entry): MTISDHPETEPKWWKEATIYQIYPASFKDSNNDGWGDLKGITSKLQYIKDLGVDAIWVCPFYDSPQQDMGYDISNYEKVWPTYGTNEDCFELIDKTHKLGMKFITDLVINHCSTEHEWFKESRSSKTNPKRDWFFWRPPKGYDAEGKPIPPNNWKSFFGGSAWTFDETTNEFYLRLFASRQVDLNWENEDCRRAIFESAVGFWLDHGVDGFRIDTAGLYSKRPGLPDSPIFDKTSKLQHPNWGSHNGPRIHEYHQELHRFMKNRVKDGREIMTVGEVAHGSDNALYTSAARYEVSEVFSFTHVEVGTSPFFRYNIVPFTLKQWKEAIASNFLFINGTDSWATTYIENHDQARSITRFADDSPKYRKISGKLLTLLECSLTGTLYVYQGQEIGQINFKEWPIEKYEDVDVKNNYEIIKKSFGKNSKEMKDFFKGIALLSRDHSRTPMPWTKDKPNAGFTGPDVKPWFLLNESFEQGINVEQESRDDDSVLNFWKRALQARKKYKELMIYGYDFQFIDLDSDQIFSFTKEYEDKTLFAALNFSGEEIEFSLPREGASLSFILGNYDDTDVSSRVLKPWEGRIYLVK

## Cc1sc2nc3c(c(N)c2c1C)CCCC3 [BN-2, 2,3-dimethyl-5,6,7,8-tetrahydrothieno[2,3-b]quinolin-4-amine]
[1]
  Yeast α-glucosidase enzyme inhibitory activity (in words): strong significant inhibitory activity
[1]; yeast α-glucosidase, 0.039063 mg/ml, read-out: % Inhibition (Mean ± S.E)
  inhibition at 39.063 µg/mL: 15.3 ± 2.69%
[1]; yeast α-glucosidase, 0.078125 mg/ml, read-out: % Inhibition (Mean ± S.E)
  inhibition at 78.125 µg/mL: 20.1 ± 1.37%
[1]; yeast α-glucosidase, 0.15625 mg/ml, read-out: % Inhibition (Mean ± S.E)
  inhibition at 156.25 µg/mL: 25.9 ± 0.44%
[1]; yeast α-glucosidase, 0.3125 mg/ml, read-out: % Inhibition (Mean ± S.E)
  inhibition at 312.5 µg/mL: 33.4 ± 0.76%
[1]; yeast α-glucosidase, 0.625 mg/ml, read-out: % Inhibition (Mean ± S.E)
  inhibition at 625 µg/mL: 39.2 ± 0.87%
[1]; yeast α-glucosidase, 1.25 mg/ml, read-out: % Inhibition (Mean ± S.E)
  inhibition at 1250 µg/mL: 43.9 ± 1.92%
[1]; yeast α-glucosidase, 2.5 mg/ml, read-out: % Inhibition (Mean ± S.E)
  inhibition at 2500 µg/mL: 53 ± 1.13%
[1]; yeast α-glucosidase, 5 mg/ml, read-out: % Inhibition (Mean ± S.E)
  inhibition at 5000 µg/mL: 56.54 ± 0.28%

## Cc1sc2nc3c(c(N)c2c1C)CCCCC3 [BN-4, 2,3-dimethyl-6,7,8,9-tetrahydro-5H-cyclohepta[b]thieno[3,2-e]pyridin-4-amine]
[2]; [6]
  IL-1 Beta concentration: 92.07 ± 10.70 ng/gm of tissue
[2]; paw tissue, termination day
  % Inhibition (IL-1 Beta): 33.59 ± 5.53%
[2]; [7]
  IL-1 Beta concentration: 22.83 ± 9.93 Pg/ml of tissue
  Percentage of Inhibition (IL-1 Beta): 29.28 ± 3.60%
[3]
  % Of inhibition, 5th Day: 36.41 ± 3.84 %
  % Of inhibition, 12th Day: 42.88 ± 8.45 %
  % Of inhibition, 18th Day: 40.71 ± 7.59 %
  Body weight index, 21st DAY: 199.87 ± 4.76
  Paw volume, 5th Day: 1.51 ± 0.09
  Paw volume, 12th Day: 1.42 ± 0.21
  Paw volume, 18th Day: 1.55 ± 0.20
  Paw volume, 21st Day: 1.63 ± 0.12
  Body weight index, 1st DAY: 155.15 ± 3.1
  Total WBC count: 18.53±1.36
[4]
  NO release in Sodium Nitroprusside method: significantly inhibited

## Nc1c2c(nc3sc4c(c13)CCCC4)CCC2 [BN-5, 2,3,6,7,8,9-Hexahydro-1H-benzo[4,5]thieno[2,3-b]cyclopenta[e]pyridin-10-amine]
[1]
  Yeast α-glucosidase enzyme inhibitory activity (in words): moderate inhibitory activity

## Nc1c2c(nc3sc4c(c13)CCCC4)CCCC2 [BN-6, 1,2,3,4,7,8,9,10-Octahydrobenzo[4,5]thieno[2,3-b]quinolin-11-amine]
[1]
  Yeast α-glucosidase enzyme inhibitory activity (in words): moderate inhibitory activity

## Nc1c2c(nc3sc4c(c13)CCC4)CCC2 [BN-13, 1,2,3,6,7,8-hexahydrocyclopenta [b]cyclopenta[4,5] thieno[3,2-e]pyridin-9-amine]
[5]; 100 mg/kg oral, starch 2 gm/kg, 30-120 min, vs diabetic control
  Reduction in percentage increase in blood glucose levels: greatest inhibitory activity
[5]
  % Increase in glucose, 30 min: 32.75%
  Blood glucose level, 30 min: 108.37
  % Increase in glucose, 60 min: 35.89%
  Blood glucose level, 60 min: 110.82
  % Increase in glucose, 90 min: 30.53%
  Blood glucose level, 90 min: 106.50
  % Increase in glucose, 120 min: 30.27%
  Blood glucose level, 120 min: 106.30
[5]; starch 2 gm/kg
  Blood glucose level, 0 min: 81.67
[1]
  Yeast α-glucosidase enzyme inhibitory activity (in words): moderate inhibitory activity

## CC1CCc2c(nc3sc4c(c3c2N)CCC4)C1 (stereo not drawn) [BN-15, 7-Methyl-2,3,6,7,8,9-hexahydro-1H-cyclopenta[4,5]thieno[2,3-b]quinolin-10-amine]
[5]
  % Increase in glucose, 30 min: 42.13%
  Blood glucose level, 30 min: 115.50
  % Increase in glucose, 60 min: 51.64%
  Blood glucose level, 60 min: 123.03
  % Increase in glucose, 90 min: 39.76%
  Blood glucose level, 90 min: 113.75
  % Increase in glucose, 120 min: 42.80%
  Blood glucose level, 120 min: 116.05
[5]; starch 2 gm/kg
  Blood glucose level, 0 min: 81.45
[1]
  Yeast α-glucosidase enzyme inhibitory activity (in words): moderate inhibitory activity

## Nc1c2c(nc3sc4c(c13)CCC4)CCCCCC2 [BN-17, 2,3,6,7,8,9,10,11-Octahydro-1H-cycloocta [b]cyclopenta[4,5]thieno[3,2-e]pyridin-12-amine]
[5]
  % Increase in glucose, 30 min: 51.74%
  Blood glucose level, 30 min: 124.60
  % Increase in glucose, 60 min: 52.35%
  Blood glucose level, 60 min: 125.13
  % Increase in glucose, 90 min: 49.67%
  Blood glucose level, 90 min: 123.13
  % Increase in glucose, 120 min: 49.64%
  Blood glucose level, 120 min: 122.80
[5]; starch 2 gm/kg
  Blood glucose level, 0 min: 82.40
[1]; single concentration screen
  Yeast α Glucosidase Inhibition (Mean ± S.E): 9.40 ± 4.49%

## Nc1c2c(nc3sc4c(c13)CCCCC4)CCC2 [BN-18, 1,2,3,6,7,8,9,10-Octahydrocyclohepta[4,5] thieno[2,3-b]cyclopenta [e]pyridin-11-amine]
[1]
  Yeast α-glucosidase enzyme inhibitory activity (in words): moderate inhibitory activity

## COc1ccc2c(c1)c(CC(=O)O)c(C)n2C(=O)c1ccc(Cl)cc1 [Indomethacin, reference compound]
[2]; [6]
  IL-1 Beta concentration: 81.02 ± 17.98 ng/gm of tissue
[2]; paw tissue, termination day
  % Inhibition (IL-1 Beta): 40.42 ± 8.73%
[2]; [7]
  IL-1 Beta concentration: 46.0 ± 7.91 Pg/ml of tissue
  Percentage of Inhibition (IL-1 Beta): 20.04 ± 5.33%
[3]
  % Of inhibition, 5th Day: 37.25 ± 2.36 %
  % Of inhibition, 12th Day: 45.43 ± 3.56 %
  % Of inhibition, 18th Day: 45.80 ± 6.09%
  Body weight index, 21st DAY: 182.68 ± 4.91
  Paw volume, 5th Day: 1.49 ± 0.06
  Paw volume, 12th Day: 1.35 ± 0.09
  Paw volume, 18th Day: 1.42 ± 0.02
  Paw volume, 21st Day: 1.43 ± 0.08
  Body weight index, 1st DAY: 157.85 ± 2.08
  Total WBC count: 20.67±0.59
